For assay [1], the system named is P. falciparum female gametocytes. Nature of the assay: P. falciparum Dual Gamete Formation Assay (PfDGFA), female readout (Pfs25-positive female gametes). The format is cell-based, Plasmodium falciparum NF54. The note with it: for Average inhibition female (%): average of replicates; for % inhibition female (individual replicates) R1: replicate R1; for % inhibition female (individual replicates) R3: replicate R3; for % inhibition female (individual replicates) R4: replicate R4. An outline of the steps: (§1)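 Read-outs are automated image counts of exflagellation centres (brightfield, 10 frames over 1 s) and Pfs25-positive female gametes (Cy3 fluorescence).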

For assay [2], the system named is P. falciparum male gametocytes. Nature of the assay: P. falciparum Dual Gamete Formation Assay (PfDGFA), male readout (exflagellation). It is filed as cell-based, Plasmodium falciparum NF54. The note with it: for Average inhibition male (%): average of replicates; for % inhibition male (individual replicates) R1: replicate R1; for % inhibition male (individual replicates) R3: replicate R3; for % inhibition male (individual replicates) R4: replicate R4; for Activity: hit = >50% inhibition in male or female readout in at least 3 replicates, 0 = no class assigned. In short, it runs like this: as §1

Setting [3] is: 2µM, 24h preincubation with gametocytes prior to induction of gametogenesis.
Setting [4] is: 2µM, 24h preincubation, hits selected on >50% inhibition in the female readout across replicates.
Where [5] appears, read: 2µM, 24h preincubation, hits selected on >50% inhibition in the male readout across replicates.
The mark [6] stands for this setting: PfDGFA at 2µM, 24h preincubation.
The mark [7] stands for this setting: 2µM, 24h preincubation, number of replicates with >50% inhibition in the female readout.
Setting [8] is: 2µM, 24h preincubation, number of replicates with >50% inhibition in the male readout.
The mark [9] stands for this setting: PfDGFA at 2µM, 24h preincubation with gametocytes.
Setting [10] is: PfDGFA at 2µM, 24h preincubation with gametocytes prior to induction of gametogenesis.
Setting [11] is: 2µM, 24h preincubation with gametocytes.

As for `COc1cc(CNCCCCCCNCc2cc(OC)cc3ccccc23)c2ccccc2c1.CS(=O)(=O)O` [TCMDC-137823], in assay [1] (setting [3]), the “Average inhibition female (%)” value came out at 15.2%, the “% inhibition female (individual replicates) R1” value came out at 16.9%, the “% inhibition female (individual replicates) R3” value is 3.5% and the “% inhibition female (individual replicates) R4” value is 20.5%. For the same compound, the HitlevelF in assay [1] (setting [4]) turned out to be 0. Further, in assay [2] (setting [3]), the “Average inhibition male (%)” value came out at 27.1%, the “% inhibition male (individual replicates) R1” value was determined as 24.9%, the “% inhibition male (individual replicates) R3” value was determined as 12.3% and the “% inhibition male (individual replicates) R4” value was determined as 38.9%. In assay [2] (setting [5]), this compound came in with a HitlevelM of 0. For the same compound, the Activity in assay [2] (setting [6]) is on record as 0.

Consider `CCCCOc1cc(CNCCCCCCNCc2cc(OCCCC)cc3ccccc23)c2ccccc2c1.CS(=O)(=O)O` [TCMDC-137824], for which, in assay [1] (setting [3]), the “Average inhibition female (%)” value worked out at 23.5%, the “% inhibition female (individual replicates) R1” value is listed as 22.5%, the “% inhibition female (individual replicates) R3” value was 5.4% and the “% inhibition female (individual replicates) R4” value was determined as 30.9%. This compound had a HitlevelF in assay [1] (setting [7]) of 0. Also, in assay [2] (setting [3]), the “Average inhibition male (%)” value was found to be 32.5%, the “% inhibition male (individual replicates) R1” value turned out to be 29.7%, the “% inhibition male (individual replicates) R3” value is reported as -0.8% and the “% inhibition male (individual replicates) R4” value turned out to be 46.2%. In assay [2] (setting [8]), the HitlevelM is 1.

As to `COc1c(OC)c(OC)c2ccccc2c1CNCCCCCCNCc1c(OC)c(OC)c(OC)c2ccccc12.Cl` [TCMDC-137827], in assay [1] (setting [9]), the “Average inhibition female (%)” value is recorded as 37.0%, the “% inhibition female (individual replicates) R1” value was found to be 45.3%, the “% inhibition female (individual replicates) R3” value was determined as 25.5% and the “% inhibition female (individual replicates) R4” value came to 33.3%. In assay [1] (number of replicates with >50% inhibition in the female readout, 2µM), the HitlevelF was determined as 0. Moreover, in assay [2] (setting [9]), the “Average inhibition male (%)” value was 67.6%, the “% inhibition male (individual replicates) R1” value is on record as 64.0% and the “% inhibition male (individual replicates) R4” value was 54.3%. In assay [2] (number of replicates with >50% inhibition in the male readout, 2µM), the HitlevelM came out at 3.

Regarding `CCN(C)C(=O)n1ncc2c3c(N)nc(N)nc3ccc21` [TCMDC-137828], in assay [1] (setting [10]), the “% inhibition female (individual replicates) R1” value stood at 0.36%, the “% inhibition female (individual replicates) R3” value is -2.4% and the “% inhibition female (individual replicates) R4” value was 3.1%. The “Average inhibition female (%)” value in assay [1] (setting [6]) is reported as -0.8%. In assay [2] (setting [10]), the “% inhibition male (individual replicates) R1” value was 33.9%, the “% inhibition male (individual replicates) R3” value worked out at 38.2% and the “% inhibition male (individual replicates) R4” value was found to be 21.2%. The “Average inhibition male (%)” value in assay [2] (setting [6]) is listed as 34.9%.

Turning to `COc1c(CNCCCCCCNCc2c(OC)c(OC)c3ccccc3c2OC)c(OC)c2ccccc2c1OC.CS(=O)(=O)O` [TCMDC-137837], in assay [1] (setting [3]), the “Average inhibition female (%)” value turned out to be 13.6%, the “% inhibition female (individual replicates) R1” value turned out to be 13.3%, the “% inhibition female (individual replicates) R3” value is given as 14.5% and the “% inhibition female (individual replicates) R4” value stood at 16.6%. Moreover, the HitlevelF in assay [1] (setting [4]) is listed as 0. For the same compound, in assay [2] (setting [3]), the “Average inhibition male (%)” value amounted to 26.0%, the “% inhibition male (individual replicates) R1” value was found to be 25.5%, the “% inhibition male (individual replicates) R3” value is reported as 24.6% and the “% inhibition male (individual replicates) R4” value turned out to be 53.4%. This compound also had a HitlevelM in assay [2] (setting [5]) of 1. The same compound had an Activity in assay [2] (setting [6]) of 0.

`C#CCOc1ccc2ccccc2c1CNCCCCCCNCc1c(OCC#C)ccc2ccccc12.CS(=O)(=O)O` [TCMDC-137838]: in assay [1] (setting [11]), the “Average inhibition female (%)” value was found to be 57.5%, the “% inhibition female (individual replicates) R1” value turned out to be 37.7%, the “% inhibition female (individual replicates) R3” value came out at 36.7% and the “% inhibition female (individual replicates) R4” value was 72.5%. Besides, in assay [2] (setting [11]), the “Average inhibition male (%)” value is given as 97.5%, the “% inhibition male (individual replicates) R1” value was determined as 98.4%, the “% inhibition male (individual replicates) R3” value is recorded as 92.7% and the “% inhibition male (individual replicates) R4” value worked out at 100.9%.

`COc1cc2ccccc2c(OC)c1CCNCCCCNCCc1c(OC)cc2ccccc2c1OC.CS(=O)(=O)O` [TCMDC-137842]: in assay [1] (setting [3]), the “Average inhibition female (%)” value turned out to be 13.3%, the “% inhibition female (individual replicates) R1” value came out at 16.6%, the “% inhibition female (individual replicates) R3” value is listed as -7.2% and the “% inhibition female (individual replicates) R4” value worked out at 21.8%. This compound had a HitlevelF in assay [1] (setting [4]) of 0. Moreover, in assay [2] (setting [3]), the “Average inhibition male (%)” value is 40.8%, the “% inhibition male (individual replicates) R1” value stood at 35.9%, the “% inhibition male (individual replicates) R3” value is listed as -0.8% and the “% inhibition male (individual replicates) R4” value was 68.2%. The HitlevelM in assay [2] (setting [5]) was 2. The compound further returned an Activity in assay [2] (setting [6]) of 0.

With `C/C=C/COc1ccc2ccccc2c1CNCCCCCCCCNCc1c(OC/C=C/C)ccc2ccccc12.CS(=O)(=O)O.O` [TCMDC-137844], in assay [1] (setting [3]), the “Average inhibition female (%)” value came to 23.4%, the “% inhibition female (individual replicates) R1” value is reported as 25.6%, the “% inhibition female (individual replicates) R3” value turned out to be 6.4% and the “% inhibition female (individual replicates) R4” value was determined as 40.3%. For the same compound, the HitlevelF in assay [1] (setting [7]) is 0. Also, in assay [2] (setting [3]), the “Average inhibition male (%)” value came out at 25.4%, the “% inhibition male (individual replicates) R1” value is 38.1%, the “% inhibition male (individual replicates) R3” value is given as 0.24% and the “% inhibition male (individual replicates) R4” value was found to be 61.8%. Also, the HitlevelM in assay [2] (setting [8]) is listed as 1.

With `CC(C)c1cc2c(ccc3nc(N)nc(N)c32)[nH]1` [TCMDC-137847], in assay [1] (setting [3]), the “Average inhibition female (%)” value is on record as 11.1%, the “% inhibition female (individual replicates) R1” value worked out at 19.6%, the “% inhibition female (individual replicates) R3” value is on record as 6.0% and the “% inhibition female (individual replicates) R4” value was determined as 11.3%. In assay [1] (setting [4]), this compound gave a HitlevelF of 0. In addition, in assay [2] (setting [3]), the “Average inhibition male (%)” value is 0.8%, the “% inhibition male (individual replicates) R1” value is 37.4%, the “% inhibition male (individual replicates) R3” value is -19.2% and the “% inhibition male (individual replicates) R4” value is given as -31.8%. The HitlevelM in assay [2] (setting [5]) worked out at 0. Further, in assay [2] (setting [6]), the Activity came out at 0.

For `CCc1cc2c3c(N)nc(N)nc3ccc2n1CC` [TCMDC-137851], in assay [1] (setting [3]), the “Average inhibition female (%)” value is 9.4%, the “% inhibition female (individual replicates) R1” value was 20.5%, the “% inhibition female (individual replicates) R3” value is given as -5.1% and the “% inhibition female (individual replicates) R4” value is listed as 10.4%. For the same compound, the HitlevelF in assay [1] (setting [4]) turned out to be 0. Moreover, in assay [2] (setting [3]), the “Average inhibition male (%)” value is -13.9%, the “% inhibition male (individual replicates) R1” value is reported as 35.0%, the “% inhibition male (individual replicates) R3” value was -28.2% and the “% inhibition male (individual replicates) R4” value is -58.5%. Besides, the HitlevelM in assay [2] (setting [5]) is 0. Further, in assay [2] (setting [6]), the Activity was 0.

For the compound `Cl.Nc1nc(N)c2c(ccc3c2cnn3S(=O)(=O)N2CCCC2)n1` [TCMDC-137852], in assay [1] (setting [10]), the “% inhibition female (individual replicates) R1” value turned out to be 0.4%, the “% inhibition female (individual replicates) R3” value is reported as -21.8% and the “% inhibition female (individual replicates) R4” value is listed as -7.9%. Also, the “Average inhibition female (%)” value in assay [1] (setting [6]) was -7.0%. For the same compound, in assay [2] (setting [10]), the “% inhibition male (individual replicates) R1” value was determined as 28.2%, the “% inhibition male (individual replicates) R3” value was -12.1% and the “% inhibition male (individual replicates) R4” value is given as -13.1%. In assay [2] (setting [6]), the “Average inhibition male (%)” value is listed as 5.0%.

As for `Cl.Nc1nc(N)c2c(ccc3nn(S(=O)(=O)N4CCCC4)cc32)n1` [TCMDC-137854], in assay [1] (setting [10]), the “% inhibition female (individual replicates) R1” value was -6.1%, the “% inhibition female (individual replicates) R3” value was found to be 12.6% and the “% inhibition female (individual replicates) R4” value is listed as -10.2%. Also, in assay [1] (setting [6]), the “Average inhibition female (%)” value is on record as -1.3%. In addition, in assay [2] (setting [10]), the “% inhibition male (individual replicates) R1” value is given as 39.1%, the “% inhibition male (individual replicates) R3” value came out at 32.8% and the “% inhibition male (individual replicates) R4” value was 30.1%. The “Average inhibition male (%)” value in assay [2] (setting [6]) was found to be 33.2%.

With `CCCn1cc2c(ccc3nc(N)nc(N)c32)n1` [TCMDC-137858], in assay [1] (setting [10]), the “% inhibition female (individual replicates) R1” value turned out to be 9.1%, the “% inhibition female (individual replicates) R3” value is recorded as -22.2% and the “% inhibition female (individual replicates) R4” value was 2.7%. In addition, the “Average inhibition female (%)” value in assay [1] (setting [6]) was -1.2%. In assay [2] (setting [10]), the “% inhibition male (individual replicates) R1” value was determined as 0.8%, the “% inhibition male (individual replicates) R3” value is recorded as -0.8% and the “% inhibition male (individual replicates) R4” value was -25.8%. Further, in assay [2] (setting [6]), the “Average inhibition male (%)” value stood at 1.4%.

For the compound `CC(C)n1cc2c(ccc3nc(N)nc(N)c32)n1` [TCMDC-137865], in assay [1] (setting [10]), the “% inhibition female (individual replicates) R1” value is given as 4.2%, the “% inhibition female (individual replicates) R3” value is given as -9.2% and the “% inhibition female (individual replicates) R4” value is given as -1.6%. Besides, in assay [1] (setting [6]), the “Average inhibition female (%)” value is -0.07%. For the same compound, in assay [2] (setting [10]), the “% inhibition male (individual replicates) R1” value came to 12.4%, the “% inhibition male (individual replicates) R3” value was -22.8% and the “% inhibition male (individual replicates) R4” value was -29.8%. Besides, in assay [2] (setting [6]), the “Average inhibition male (%)” value is -10.2%.

The values above are taken from article PMC10584170, “Machine learning-based phenotypic imaging to characterise the targetable biology of Plasmodium falciparum male gametocytes for the development of transmission-blocking antimalarials” (PLOS Pathogens, 2023).
